{
  "source": "paper PMC10345685",
  "about": "“Anthocyanin and proanthocyanidin from Aronia melanocarpa (Michx.) Ell.: Purification, fractionation, and enzyme inhibition” (Food Science & Nutrition, 2023)",
  "key": {"α‐Glucosidase": {"molecular_target": "α‐Glucosidase", "conditions": "cited from earlier work"}, "α‐Amylase": {"molecular_target": "α‐Amylase", "conditions": "cited from earlier work"}, "Lipase": {"molecular_target": "Lipase", "conditions": "cited from earlier work"}, "[1]": {"molecular_target": "T1, Lipase from human porcine pancreas (Sus scrofa, UniProt P00591)", "T1 construct": "purchased Sigma‐Aldrich, Inc (Shanghai, China)", "T1 sequence (P00591 1-450)": "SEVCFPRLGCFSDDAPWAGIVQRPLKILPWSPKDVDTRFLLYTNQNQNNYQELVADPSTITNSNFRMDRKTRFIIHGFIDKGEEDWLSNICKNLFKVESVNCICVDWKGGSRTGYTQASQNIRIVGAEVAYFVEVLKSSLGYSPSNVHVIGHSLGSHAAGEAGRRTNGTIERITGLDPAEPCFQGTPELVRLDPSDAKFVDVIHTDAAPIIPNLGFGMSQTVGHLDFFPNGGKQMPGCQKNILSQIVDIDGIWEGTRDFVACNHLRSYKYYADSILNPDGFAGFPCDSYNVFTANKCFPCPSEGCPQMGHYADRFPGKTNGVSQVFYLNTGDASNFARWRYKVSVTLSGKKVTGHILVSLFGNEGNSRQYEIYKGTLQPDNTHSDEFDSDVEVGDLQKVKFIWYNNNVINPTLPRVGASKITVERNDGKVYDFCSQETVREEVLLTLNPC", "assay": "Lipase inhibition (pNP laurate substrate)", "type": "biochemical", "conditions": "comparison among the anthocyanins / proanthocyanidin fractions", "from_the_text": "(§1) All the chemicals used for analyses were of analytical grade and high‐performance liquid chromatography (HPLC) chemicals were of HPLC purity and were all purchased from Sinopharm Chemical Reagent Co., Ltd (Shanghai, China). Lipase from […] porcine pancreas (EC 3.1.1.3), α‐amylase from human pancreas (EC 3.2.1.1), and α‐glucosidase from Bacillus stearothermophilus (EC 3.2.1.20) were obtained from Sigma‐Aldrich, Inc (Shanghai, China). Standards of cyanidin 3‐galactoside, cyanidin 3‐arabinoside, cyanidin 3‐xyloside, cyanidin 3‐glucoside, catechin, and epicatechin were obtained from Sigma‐Aldrich, Inc. (Shanghai, China). Amberlite XAD7HP, Sephadex LH‐20, and ENVI 18 DSK SPE were obtained from Sigma‐Aldrich, Inc (Shanghai, China).\nThe lipase inhibitory activity was determined according to the method described by Tan et al. ([2017]) with modifications (Table 3). Three hundred and fifty μL phosphate buffer (0.05 M, pH 7.6), 150 μL of porcine lipase enzyme solution (50 mg/mL), and 50 μL of fractionated compounds were added in a centrifuge tube (1.5 mL size) and incubated at 37°C for exactly 10 min. Then, 450 μL pNP laurate substrate was added to the reaction mixture and blended, followed by incubation at 37°C for 120 min without light. The reaction mixture was centrifuged for 10 min at 8000 g and the supernatant of 200 μL was taken into a 96‐well plate to determine the absorbance at 405 nm. The percentage inhibition was calculated using Equation 4. Lipase inhibitory activity was measured at five different concentrations, and a logarithmic regression curve was established to calculate IC50 values (Tan et al., [2017]). (4) Lipase inhibitory activity%=1−As−Ab/At−Ac×100%"}, "[2]": {"molecular_target": "T2, α‐amylase from human pancreas (Homo sapiens, UniProt P04746)", "T2 construct": "purchased Sigma‐Aldrich, Inc (Shanghai, China)", "T2 sequence (P04746 16-511)": "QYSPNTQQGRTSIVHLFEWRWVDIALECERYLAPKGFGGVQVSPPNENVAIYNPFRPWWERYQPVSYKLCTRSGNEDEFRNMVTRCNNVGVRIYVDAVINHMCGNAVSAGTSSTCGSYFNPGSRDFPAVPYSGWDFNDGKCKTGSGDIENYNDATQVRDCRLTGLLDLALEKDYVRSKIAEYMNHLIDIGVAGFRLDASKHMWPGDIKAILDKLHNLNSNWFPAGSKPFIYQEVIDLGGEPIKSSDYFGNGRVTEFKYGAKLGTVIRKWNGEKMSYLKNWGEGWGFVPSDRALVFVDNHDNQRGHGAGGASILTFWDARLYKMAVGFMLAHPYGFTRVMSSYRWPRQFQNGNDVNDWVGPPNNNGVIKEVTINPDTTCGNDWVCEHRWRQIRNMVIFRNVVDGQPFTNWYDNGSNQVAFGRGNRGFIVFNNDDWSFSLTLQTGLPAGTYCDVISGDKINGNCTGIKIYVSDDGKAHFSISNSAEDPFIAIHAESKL", "assay": "α‐Amylase inhibition (DNS method, soluble starch)", "type": "biochemical", "conditions": "comparison among the anthocyanins / proanthocyanidin fractions", "from_the_text": "as §1, with “Amberlite XAD7HP, Sephadex LH‐20, and ENVI 18 DSK SPE were obtained from Sigma‐Aldrich, Inc (Shanghai, China).” left out\nα‐Amylase inhibitory activity was determined using the method from Tan et al. ([2017]), with a slight modification as Table 1 indicates. […] Then, 200 μL of the mixture was taken and added to a 96‐well plate and the absorption at 540 nm was determined. To eliminate the background absorbance produced by the fractionated compounds, an appropriate extract control without enzyme was included. α‐Amylase inhibitory activity was measured at five different concentrations, and a logarithmic regression curve was established to calculate IC50 values (mg/mL) (Tan et al., [2017]). The α‐amylase inhibitory activity was expressed as function 2 and the As, Ab, At, and Ac indicated the absorbance in different solutions as shown in Table 1. […]"}, "[3]": {"conditions": "nf, not found, ref Worsztynowicz et al., 2014"}, "[4]": {"conditions": "ref Akkarachiyasit et al., 2010"}},
  "note": "Read-outs that look alike come from different tables or passages of the source.",
  "data": [
    {"smiles": "OCC1OC(Oc2cc3c(O)cc(O)cc3[o+]c2-c2ccc(O)c(O)c2)C(O)C(O)C1O", "note": "(centres unmarked) [Cyanidin 3‐galactoside, cyanidin 3‐galactoside]", "values": [
      {"measurement": "IC50 values α‐Glucosidase", "setting": "α‐Glucosidase; for sucrose, ref Adisakwattana et al., 2009", "value": "224.5 ± 22.45", "unit": "µg/mL"},
      {"measurement": "IC50 values α‐Glucosidase", "setting": "α‐Glucosidase; ref Bräunlich et al., 2013", "value": "1.54 ± 0.1", "unit": "µg/mL"},
      {"measurement": "IC50 values α‐Amylase", "setting": "α‐Amylase; [3]", "value": "5.16 ± 0.06", "unit": "mg/mL"},
      {"measurement": "IC50", "setting": "α‐Amylase; [4]", "value": "> 1000", "unit": "µM"},
      {"measurement": "IC50 values Lipase", "setting": "Lipase; [3]", "value": "nf (Worsztynowicz et al., [2014])"},
      {"measurement": "inhibition effect on lipase (in words)", "setting": "[1]", "value": "no inhibition effects"}
    ]},
    {"smiles": "Oc1cc(O)c2cc(OC3OCC(O)C(O)C3O)c(-c3ccc(O)c(O)c3)[o+]c2c1", "note": "(centres unmarked) [Cyanidin 3‐arabinoside, cyanidin 3‐arabinoside]", "values": [
      {"measurement": "IC50 values α‐Glucosidase", "setting": "α‐Glucosidase; ref Bräunlich et al., 2013", "value": "0.37 ± 0.08 μg/mL (Bräunlich et al., [2013])"},
      {"measurement": "IC50 values α‐Amylase", "setting": "α‐Amylase; [3]", "value": "3.98 ± 0.10 mg/mL (Worsztynowicz et al., [2014])"},
      {"measurement": "IC50 values Lipase", "setting": "Lipase; [3]", "value": "nf (Worsztynowicz et al., [2014])"},
      {"measurement": "inhibition effect on lipase (in words)", "setting": "[1]", "value": "no inhibition effects"}
    ]},
    {"smiles": "OCC1OC(Oc2cc3c(O)cc(O)cc3[o+]c2-c2ccc(O)c(O)c2)C(O)C(O)C1O", "note": "(centres unmarked) [Cyanidin 3‐glucoside, cyanidin 3‐glucoside]", "values": [
      {"measurement": "IC50 values α‐Glucosidase", "setting": "α‐Glucosidase; for sucrose, ref Akkarachiyasit et al., 2010", "value": "435.53 ± 22.45", "unit": "µg/mL"},
      {"measurement": "IC50 values α‐Glucosidase", "setting": "α‐Glucosidase; ref Bräunlich et al., 2013", "value": "0.87 ± 0.2", "unit": "µg/mL"},
      {"measurement": "IC50 values α‐Amylase", "setting": "α‐Amylase; [3]", "value": "1.74 ± 0.04", "unit": "mg/mL"},
      {"measurement": "IC50 values α‐Amylase", "setting": "α‐Amylase; [4]", "value": "0.1347 ± 0.00449", "unit": "mg/mL"},
      {"measurement": "inhibition effect on α‐amylase (in words)", "setting": "[2]", "value": "strongest inhibition effects"},
      {"measurement": "IC50 values Lipase", "setting": "Lipase; [3]", "value": "1170 ± 40", "unit": "µg/mL"},
      {"measurement": "IC50 values Lipase", "setting": "Lipase; ref Vijayaraj et al., 2019", "value": "84.54 ± 2.94", "unit": "µg/mL"},
      {"measurement": "inhibition effect on lipase (in words)", "setting": "[1]", "value": "strongest inhibition effects"}
    ]},
    {"smiles": "Oc1cc(O)c2cc(OC3OCC(O)C(O)C3O)c(-c3ccc(O)c(O)c3)[o+]c2c1", "note": "(centres unmarked) [Cyanidin 3‐xyloside, cyanidin 3‐xyloside]", "values": [
      {"measurement": "IC50 values α‐Glucosidase", "setting": "α‐Glucosidase; ref Bräunlich et al., 2013", "value": "5.5 ± 1.6 μg/mL (Bräunlich et al., [2013])"},
      {"measurement": "IC50 values α‐Amylase", "setting": "α‐Amylase; [3]", "value": "nf (Worsztynowicz et al., [2014])"},
      {"measurement": "inhibition effect on α‐amylase (in words)", "setting": "[2]", "value": "no effect"},
      {"measurement": "IC50 values Lipase", "setting": "Lipase; [3]", "value": "nf (Worsztynowicz et al., [2014])"},
      {"measurement": "inhibition effect on lipase (in words)", "setting": "[1]", "value": "no inhibition effects"}
    ]}
  ]
}
